From the CheMixHub viscosity set

Assay: xn = mol fraction of the nth substance listed

CC(C)c1ccccc1 + CCCO
viscosity [mPa·s], 101 kPa
Conditions | 298.15 K | 303.15 K | 308.15 K | 313.15 K | 318.15 K | 323.15 K
x1 = 0.013 | 1.976 | – | 1.523 | – | – | –
x1 = 0.0796 | 1.683 | – | 1.334 | – | – | –
x1 = 0.1684 | 1.406 | – | 1.14 | – | – | –
x1 = 0.2504 | 1.236 | – | 1.011 | – | – | –
x1 = 0.3462 | 1.092 | – | 0.896 | – | – | –
x1 = 0.4697 | 0.956 | – | 0.791 | – | – | –
x1 = 0.5994 | 0.854 | – | 0.712 | – | – | –
x1 = 0.7565 | 0.756 | – | 0.657 | – | – | –
x2 = 0.0996 | – | 0.6838 | 0.6412 | 0.602 | 0.5678 | 0.5436
x2 = 0.1997 | – | 0.6995 | 0.6529 | 0.612 | 0.5746 | 0.54
x2 = 0.2988 | – | 0.7297 | 0.6794 | 0.6333 | 0.592 | 0.5542
x2 = 0.4008 | – | 0.7751 | 0.7176 | 0.6661 | 0.6202 | 0.5777
x2 = 0.5012 | – | 0.8411 | 0.7731 | 0.7142 | 0.6612 | 0.6129
x2 = 0.6002 | – | 0.9284 | 0.847 | 0.7762 | 0.7145 | 0.6596
x2 = 0.7002 | – | 1.046 | 0.9475 | 0.8652 | 0.7897 | 0.7201
x2 = 0.8 | – | 1.205 | 1.086 | 0.982 | 0.8912 | 0.81
x2 = 0.8991 | – | 1.426 | 1.275 | 1.146 | 1.033 | 0.9322

Cn1c(=O)c2c(ncn2C)n(C)c1=O + O
Conditions | viscosity [mPa·s]
293.15 K, 100 kPa, x1 = 0.000362 | 1.007
293.15 K, 100 kPa, x1 = 0.00054 | 1.01
293.15 K, 100 kPa, x1 = 0.00072 | 1.013
293.15 K, 100 kPa, x1 = 0.0009 | 1.018
293.15 K, 100 kPa, x1 = 0.00108 | 1.022
293.15 K, 100 kPa, x1 = 0.00126 | 1.027
293.15 K, 100 kPa, x1 = 0.00144 | 1.031
298.15 K, 100 kPa, x1 = 0.000362 | 0.892
298.15 K, 100 kPa, x1 = 0.00054 | 0.897
298.15 K, 100 kPa, x1 = 0.00072 | 0.901
298.15 K, 100 kPa, x1 = 0.0009 | 0.903
298.15 K, 100 kPa, x1 = 0.00144 | 0.916
298.15 K, 101 kPa, x1 = 9.11e-06 | 0.8903
298.15 K, 101 kPa, x1 = 1.822e-05 | 0.8906
298.15 K, 101 kPa, x1 = 7.288e-05 | 0.8912
298.15 K, 101 kPa, x1 = 0.0001457 | 0.8921
298.15 K, 101 kPa, x1 = 0.0001858 | 0.8928
298.15 K, 101 kPa, x1 = 0.0002 | 0.8925
298.15 K, 101 kPa, x1 = 0.0002277 | 0.8933
298.15 K, 101 kPa, x1 = 0.00045 | 0.8973
298.15 K, 101 kPa, x1 = 0.0004553 | 0.8967
298.15 K, 101 kPa, x1 = 0.000835 | 0.9028
298.15 K, 101 kPa, x1 = 0.0009102 | 0.904
298.15 K, 101 kPa, x1 = 0.00168 | 0.9204
298.15 K, 101 kPa, x1 = 0.001827 | 0.9238
303.15 K, 100 kPa, x1 = 0.000362 | 0.799
303.15 K, 100 kPa, x1 = 0.00054 | 0.802
303.15 K, 100 kPa, x1 = 0.00072 | 0.805
303.15 K, 100 kPa, x1 = 0.0009 | 0.809
303.15 K, 100 kPa, x1 = 0.00108 | 0.812
303.15 K, 100 kPa, x1 = 0.00126 | 0.815
303.15 K, 100 kPa, x1 = 0.00144 | 0.819
308.15 K, 100 kPa, x1 = 0.000362 | 0.72
308.15 K, 100 kPa, x1 = 0.00072 | 0.725
308.15 K, 100 kPa, x1 = 0.00144 | 0.738
308.15 K, 101 kPa, x1 = 0.0002 | 0.7216
308.15 K, 101 kPa, x1 = 0.000508 | 0.7219
308.15 K, 101 kPa, x1 = 0.000835 | 0.7263
308.15 K, 101 kPa, x1 = 0.00106 | 0.7314
308.15 K, 101 kPa, x1 = 0.00168 | 0.7421
308.15 K, 101 kPa, x1 = 0.001827 | 0.7443
310.15 K, 101 kPa, x1 = 9.11e-06 | 0.6928
310.15 K, 101 kPa, x1 = 1.822e-05 | 0.6933
310.15 K, 101 kPa, x1 = 7.288e-05 | 0.6952
310.15 K, 101 kPa, x1 = 0.0001457 | 0.6977
310.15 K, 101 kPa, x1 = 0.0001858 | 0.6998
310.15 K, 101 kPa, x1 = 0.0002277 | 0.7014
310.15 K, 101 kPa, x1 = 0.0004553 | 0.7104
310.15 K, 101 kPa, x1 = 0.0009102 | 0.7283
313.15 K, 100 kPa, x1 = 0.000362 | 0.652
313.15 K, 100 kPa, x1 = 0.00054 | 0.655
313.15 K, 100 kPa, x1 = 0.00072 | 0.657
313.15 K, 100 kPa, x1 = 0.0009 | 0.66
313.15 K, 100 kPa, x1 = 0.00108 | 0.663
313.15 K, 100 kPa, x1 = 0.00126 | 0.665
313.15 K, 100 kPa, x1 = 0.00144 | 0.669
318.15 K, 101 kPa, x1 = 0.0002 | 0.5982
318.15 K, 101 kPa, x1 = 0.000508 | 0.6031
318.15 K, 101 kPa, x1 = 0.000835 | 0.6101
318.15 K, 101 kPa, x1 = 0.00106 | 0.6182
318.15 K, 101 kPa, x1 = 0.00139 | 0.6272
318.15 K, 101 kPa, x1 = 0.00168 | 0.6353
318.15 K, 101 kPa, x1 = 0.001827 | 0.6393

CCCN + CCN(CC)CC
303.15 K, 101.33 kPa
Conditions | viscosity [mPa·s]
x2 = 0.1027 | 0.3371
x2 = 0.2061 | 0.3317
x2 = 0.3991 | 0.3268
x2 = 0.495 | 0.3278
x2 = 0.6009 | 0.331
x2 = 0.7911 | 0.3408
x2 = 0.8925 | 0.3499

CCCCOC(C)=O + Cc1ccc(C)cc1
viscosity [mPa·s], 101 kPa
Conditions | 298.15 K | 308.15 K
x1 = 0.0459 | 0.615 | 0.537
x1 = 0.1511 | 0.615 | 0.54
x1 = 0.2505 | 0.618 | 0.543
x1 = 0.3511 | 0.621 | 0.547
x1 = 0.4477 | 0.626 | 0.552
x1 = 0.4948 | 0.628 | 0.555
x1 = 0.55 | 0.632 | 0.558
x1 = 0.6515 | 0.639 | 0.565
x1 = 0.7509 | 0.647 | 0.572
x1 = 0.8517 | 0.657 | 0.58
x1 = 0.9445 | 0.667 | 0.589

CCCCOC(C)=O + CO
303.15 K, 101.33 kPa
Conditions | viscosity [mPa·s]
x1 = 0.0963 | 0.528
x1 = 0.1331 | 0.533
x1 = 0.1759 | 0.539
x1 = 0.2825 | 0.552
x1 = 0.3931 | 0.566
x1 = 0.4804 | 0.577
x1 = 0.5458 | 0.585
x1 = 0.6116 | 0.592
x1 = 0.6478 | 0.596
x1 = 0.7391 | 0.606
x1 = 0.8007 | 0.612
x1 = 0.8409 | 0.616
x1 = 0.8858 | 0.621
x1 = 0.924 | 0.624

CCCOC(=O)c1ccccc1 + CCCCCCCCCC
101 kPa
Conditions | viscosity [mPa·s]
298.15 K, x2 = 0.0819 | 2.098
298.15 K, x2 = 0.1156 | 2.012
298.15 K, x2 = 0.1582 | 1.889
298.15 K, x2 = 0.2027 | 1.779
298.15 K, x2 = 0.2437 | 1.682
298.15 K, x2 = 0.2875 | 1.589
298.15 K, x2 = 0.3302 | 1.501
298.15 K, x2 = 0.3837 | 1.407
298.15 K, x2 = 0.4284 | 1.338
298.15 K, x2 = 0.4707 | 1.277
298.15 K, x2 = 0.5198 | 1.213
298.15 K, x2 = 0.57 | 1.156
298.15 K, x2 = 0.6127 | 1.112
298.15 K, x2 = 0.7143 | 1.02
298.15 K, x2 = 0.773 | 0.977
298.15 K, x2 = 0.8262 | 0.94
298.15 K, x2 = 0.8749 | 0.914
298.15 K, x2 = 0.9333 | 0.887
308.15 K, x2 = 0.0562 | 1.757
308.15 K, x2 = 0.1002 | 1.658
308.15 K, x2 = 0.1418 | 1.569
308.15 K, x2 = 0.1788 | 1.495
308.15 K, x2 = 0.2302 | 1.4
308.15 K, x2 = 0.264 | 1.343
308.15 K, x2 = 0.3167 | 1.256
308.15 K, x2 = 0.356 | 1.198
308.15 K, x2 = 0.3966 | 1.142
308.15 K, x2 = 0.4436 | 1.087
308.15 K, x2 = 0.4971 | 1.029
308.15 K, x2 = 0.5403 | 0.99
308.15 K, x2 = 0.5866 | 0.952
308.15 K, x2 = 0.6432 | 0.908
308.15 K, x2 = 0.6916 | 0.875
308.15 K, x2 = 0.7401 | 0.847
308.15 K, x2 = 0.7945 | 0.816
308.15 K, x2 = 0.8513 | 0.789
308.15 K, x2 = 0.9295 | 0.759
318.15 K, x2 = 0.0529 | 1.466
318.15 K, x2 = 0.0776 | 1.417
318.15 K, x2 = 0.1165 | 1.349
318.15 K, x2 = 0.161 | 1.273
318.15 K, x2 = 0.2024 | 1.211
318.15 K, x2 = 0.2495 | 1.144
318.15 K, x2 = 0.2905 | 1.092
318.15 K, x2 = 0.3397 | 1.034
318.15 K, x2 = 0.3834 | 0.987
318.15 K, x2 = 0.432 | 0.94
318.15 K, x2 = 0.4779 | 0.899
318.15 K, x2 = 0.5308 | 0.857
318.15 K, x2 = 0.5771 | 0.824
318.15 K, x2 = 0.6312 | 0.79
318.15 K, x2 = 0.6794 | 0.763
318.15 K, x2 = 0.7616 | 0.722
318.15 K, x2 = 0.8328 | 0.693
318.15 K, x2 = 0.8708 | 0.679
318.15 K, x2 = 0.906 | 0.668
